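Growth conditions: 96-well plates. Treatment: test compound, 48 hours, 5 concentrations. Analysis: linear interpolation between bracketing concentrations; unreached endpoints set to highest concentration. GI50 is the concentration that inhibits growth by half.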 Calls of active or inactive are those of the source. No stated cut-off is given here; in the data, active = GI50 up to about 1.1 µM and inactive = higher.
Columns and labels:
Assay in all cases: inhibition of tumour cell growth, NCI panel, 48 h
SW-620 = test system: SW-620
ACHN = test system: ACHN
MDA-N = test system: MDA-N
HCC 2998 = test system: HCC 2998
SK-OV-3 = test system: SK-OV-3
HCT-116 = test system: HCT-116
U-251 = test system: U-251
Hs-578T = test system: Hs-578T
K562 = test system: K562
SNB-75 = test system: SNB-75
Malme-3M = test system: Malme-3M
KM12 = test system: KM12
COLO 205 = test system: COLO 205
SF-539 = test system: SF-539
CCRF-CEM = test system: CCRF-CEM
UO-31 = test system: UO-31
HL-60 = test system: HL-60
IGROV-1 = test system: IGROV-1
LOX IMVI = test system: LOX IMVI
MDA-MB-231 = test system: MDA-MB-231

Row | SMILES | GI50 (SW-620) | GI50 (ACHN) | GI50 (MDA-N) | GI50 (HCC 2998) | GI50 (SK-OV-3) | GI50 (HCT-116) | GI50 (U-251) | GI50 (Hs-578T) | GI50 (K562) | GI50 (SNB-75) | GI50 (Malme-3M) | GI50 (KM12) | GI50 (COLO 205) | GI50 (SF-539) | GI50 (CCRF-CEM) | GI50 (UO-31) | GI50 (HL-60) | GI50 (IGROV-1) | GI50 (LOX IMVI) | GI50 (MDA-MB-231)
1 | Cc1ccccc1C1=C/C(=C(\SS/C(C(=O)c2ccc(OCC(=O)O)c(Cl)c2Cl)=C2\C=C(c3ccccc3C)SS2)C(=O)c2ccc(OCC(=O)O)c(Cl)c2Cl)SS1 | 26.5 µM (inactive) | 23.2 µM (inactive) | 34.1 µM (inactive) | 39.4 µM (inactive) | 39.9 µM (inactive) | 21.7 µM (inactive) | 8.43 µM (inactive) | 21.2 µM (inactive) | 8.65 µM (inactive) | 34.7 µM (inactive) | 40.1 µM (inactive) | 22.3 µM (inactive) | 12.2 µM (inactive) | 17.2 µM (inactive) | 12.5 µM (inactive) | 20.9 µM (inactive) | 2.96 µM (inactive) | 16.4 µM (inactive) | 6.82 µM (inactive) | 22.6 µM (inactive)
2 | O=[N+]([O-])C(C(Cl)=C(Cl)Cl)=C(N1CCOCC1)N1CCOCC1 |  | > 100 µM (inactive) | > 100 µM (inactive) | > 100 µM (inactive) | > 100 µM (inactive) | > 100 µM (inactive) | > 100 µM (inactive) | 54.2 µM (inactive) | > 100 µM (inactive) | 1.14 µM (inactive) | 57.3 µM (inactive) | > 100 µM (inactive) | > 100 µM (inactive) | > 100 µM (inactive) | > 100 µM (inactive) | > 100 µM (inactive) | > 100 µM (inactive) | > 100 µM (inactive) | > 100 µM (inactive) | > 100 µM (inactive)
3 | CCN1CCCn2c(=O)[nH]c3cc(Br)cc1c32 | > 100 µM (inactive) | > 100 µM (inactive) | > 100 µM (inactive) | > 100 µM (inactive) | 25.2 µM (inactive) | > 100 µM (inactive) | 41.3 µM (inactive) | 0.394 µM (active) | > 100 µM (inactive) | 16.7 µM (inactive) | > 100 µM (inactive) | > 100 µM (inactive) | > 100 µM (inactive) | 23 µM (inactive) | > 100 µM (inactive) | > 100 µM (inactive) | > 100 µM (inactive) | > 100 µM (inactive) | > 100 µM (inactive) | 38.4 µM (inactive)
4 | O=C1C(Cl)=C(Nc2ccc(OC(F)(F)F)cc2)C(=O)c2c(O)ccc(O)c21 | 0.891 µM (active) | 1.45 µM (inactive) | 2.22 µM (inactive) | 0.544 µM (active) | 1.66 µM (inactive) | 0.203 µM (active) | 0.726 µM (active) | 0.719 µM (active) | 0.284 µM (active) | 0.735 µM (active) | 1.01 µM (active) | 1.5 µM (inactive) | 1.2 µM (inactive) | 1.73 µM (inactive) | 0.377 µM (active) | 0.561 µM (active) | 0.182 µM (active) | 0.745 µM (active) | 0.262 µM (active) | 0.443 µM (active)
5 | O=Cc1cc2c(cc1-c1c(C=O)ccc3c1OCO3)OCO2 | > 10 µM (inactive) | > 10 µM (inactive) | > 10 µM (inactive) | > 10 µM (inactive) | > 10 µM (inactive) | > 10 µM (inactive) | > 10 µM (inactive) | > 10 µM (inactive) | > 10 µM (inactive) | > 10 µM (inactive) | > 10 µM (inactive) | > 10 µM (inactive) | > 10 µM (inactive) | > 10 µM (inactive) | > 10 µM (inactive) |  | > 10 µM (inactive) | > 10 µM (inactive) | > 10 µM (inactive) | > 10 µM (inactive)
6 | COc1ccc(/C=C2\C[C@H]3[C@@H]4CCC5=C[C@@H](N6CCCC6)CC[C@]5(C)[C@H]4CC[C@]3(C)[C@H]2O)cc1 | 2.3 µM (inactive) | 3.29 µM (inactive) | 1.57 µM (inactive) | 1.31 µM (inactive) | 5.18 µM (inactive) | 1.98 µM (inactive) | 2.77 µM (inactive) | 2.69 µM (inactive) | 2.16 µM (inactive) | 4.97 µM (inactive) | 2.61 µM (inactive) | 2.34 µM (inactive) | 1.67 µM (inactive) | 2.15 µM (inactive) |  | 1.72 µM (inactive) | 1.95 µM (inactive) | 4.28 µM (inactive) | 1.78 µM (inactive) | 1.96 µM (inactive)
7 | COC(=O)/C=C(\C)CC/C=C(\C)CCC(O)C(C)(C)O (stereo not given) | 22.7 µM (inactive) | 25.6 µM (inactive) | 23.8 µM (inactive) | 16.8 µM (inactive) | > 100 µM (inactive) | 20.8 µM (inactive) | 28.2 µM (inactive) | 28.6 µM (inactive) | 26.1 µM (inactive) | 17.1 µM (inactive) | 17.5 µM (inactive) | 13.9 µM (inactive) | 19.7 µM (inactive) | 18.7 µM (inactive) | 15.5 µM (inactive) | 39.2 µM (inactive) | 15.6 µM (inactive) | 25.8 µM (inactive) | 16.2 µM (inactive) | > 100 µM (inactive)
8 | N#CC1=C(N2CCOCC2)CCC1 | > 100 µM (inactive) | > 100 µM (inactive) | 52.6 µM (inactive) | > 100 µM (inactive) | > 100 µM (inactive) | > 100 µM (inactive) | > 100 µM (inactive) | > 100 µM (inactive) | > 100 µM (inactive) | > 100 µM (inactive) | > 100 µM (inactive) | > 100 µM (inactive) | > 100 µM (inactive) | > 100 µM (inactive) | > 100 µM (inactive) | > 100 µM (inactive) | > 100 µM (inactive) | > 100 µM (inactive) | > 100 µM (inactive) | > 100 µM (inactive)
9 | CC(=O)OCC(Br)C1(C)CCC(C(C)(C)Br)O1 (stereo not given) | 55.6 µM (inactive) | 94.8 µM (inactive) | 44.7 µM (inactive) | 98.6 µM (inactive) | > 100 µM (inactive) | 46.8 µM (inactive) | 73.5 µM (inactive) | 17.9 µM (inactive) | > 100 µM (inactive) | 58.2 µM (inactive) | 83.6 µM (inactive) | 39.8 µM (inactive) | 51.2 µM (inactive) | > 100 µM (inactive) | > 100 µM (inactive) | 39.6 µM (inactive) | > 100 µM (inactive) | 80.2 µM (inactive) | 23.1 µM (inactive) | > 100 µM (inactive)
10 | O=C1Cc2c([nH]c3ccc(Br)cc23)-c2ccccc2N1 [KENPAULLONE] |  | > 100 µM (inactive) | > 100 µM (inactive) | > 100 µM (inactive) | > 100 µM (inactive) |  | > 51.5 µM (inactive) | > 100 µM (inactive) | > 54.8 µM (inactive) | > 50.8 µM (inactive) | > 100 µM (inactive) | 2.73 µM (inactive) | > 100 µM (inactive) | 2.43 µM (inactive) | 5.55 µM (inactive) | > 100 µM (inactive) | 5.21 µM (inactive) | 9.75 µM (inactive) | 5.35 µM (inactive) | > 100 µM (inactive)
